Laboratory results as given in BigSolDB 2.1.

CCc1ccc(C(=O)c2ccccc2C(=O)O)cc1
Conditions | solubility (mole fraction)
in 1,4-dioxane, 288.88 K | 0.0042
in 1,4-dioxane, 293.97 K | 0.0066
in 1,4-dioxane, 298.46 K | 0.0091
in 1,4-dioxane, 303.53 K | 0.0121
in 1,4-dioxane, 308.09 K | 0.0153
in 1,4-dioxane, 313.4 K | 0.0195
in 1,4-dioxane, 319.15 K | 0.024
in 1,4-dioxane, 322.54 K | 0.0278
in 1,4-dioxane, 333.97 K | 0.0353
in DMF, 281.2 K | 0.343
in DMF, 286.49 K | 0.367
in DMF, 290.63 K | 0.382
in DMF, 296.42 K | 0.42
in DMF, 305.65 K | 0.451
in DMF, 314.34 K | 0.47
in DMF, 325.55 K | 0.507
in DMF, 335.75 K | 0.532
in NMP, 280.1 K | 0.163
in NMP, 284.15 K | 0.175
in NMP, 293.44 K | 0.209
in NMP, 303.76 K | 0.26
in NMP, 313.15 K | 0.315
in NMP, 322.85 K | 0.396
in NMP, 334.3 K | 0.484
in THF, 281.2 K | 0.0064
in THF, 286.49 K | 0.0085
in THF, 296.42 K | 0.0125
in THF, 305.65 K | 0.0178
in THF, 314.34 K | 0.0246
in THF, 325.55 K | 0.0377
in THF, 330.34 K | 0.0442
in THF, 335.75 K | 0.0541
in acetone, 280.25 K | 0.0015
in acetone, 284.85 K | 0.0022
in acetone, 290.87 K | 0.0032
in acetone, 299.83 K | 0.0054
in acetone, 310.39 K | 0.0087
in acetone, 314.89 K | 0.0107
in acetone, 319.6 K | 0.0132
in acetone, 324.16 K | 0.0156
in benzene, 283.05 K | 0.0023
in benzene, 288.68 K | 0.0037
in benzene, 293.52 K | 0.0052
in benzene, 302.78 K | 0.0109
in benzene, 313.15 K | 0.0228
in benzene, 322.65 K | 0.0408
in benzene, 328.38 K | 0.0598
in benzene, 332.7 K | 0.0793
in ethanol, 282.29 K | 0.0733
in ethanol, 289.68 K | 0.1
in ethanol, 294.91 K | 0.123
in ethanol, 304.6 K | 0.164
in ethanol, 314.3 K | 0.214
in ethanol, 322.91 K | 0.256
in ethanol, 328.65 K | 0.289
in ethanol, 338.19 K | 0.354
in ethanol, 342.82 K | 0.388
in ethyl formate, 280.6 K | 0.0014
in ethyl formate, 289.68 K | 0.0027
in ethyl formate, 294.91 K | 0.0038
in ethyl formate, 299.65 K | 0.005
in ethyl formate, 304.6 K | 0.006
in ethyl formate, 309.59 K | 0.0075
in ethyl formate, 314.3 K | 0.0087
in ethyl formate, 318.67 K | 0.01
in ethyl formate, 322.91 K | 0.0113
in isopropanol, 279.79 K | 0.0023
in isopropanol, 284.74 K | 0.0037
in isopropanol, 294.05 K | 0.0085
in isopropanol, 303.99 K | 0.0174
in isopropanol, 313.25 K | 0.0305
in isopropanol, 323.37 K | 0.0464
in isopropanol, 334.05 K | 0.0631
in methanol, 279.9 K | 0.0627
in methanol, 285.6 K | 0.0827
in methanol, 290.81 K | 0.101
in methanol, 295.45 K | 0.118
in methanol, 305.56 K | 0.164
in methanol, 314.4 K | 0.202
in methanol, 323.8 K | 0.248
in methanol, 328.69 K | 0.273
in methanol, 333.53 K | 0.3
in n-propanol, 279.55 K | 0.0499
in n-propanol, 288.67 K | 0.0777
in n-propanol, 299.23 K | 0.121
in n-propanol, 308.86 K | 0.168
in n-propanol, 318.93 K | 0.223
in n-propanol, 328.62 K | 0.279
in n-propanol, 338.45 K | 0.344
in n-propanol, 343.15 K | 0.387
